PMC9775433 (Cancers, 2022)
Several values for one entry are separate records, joined by “and”; a condition that tells them apart may be missing. Equal values may be shown once. Read-outs that look alike come from different tables or passages of the source.

What was measured:
LATS1 = test system: LATS1; parameters: method as in earlier work; settings: cited from earlier work
CLK1 = test system: CLK1; parameters: method as in earlier work; settings: cited from earlier work
RASSF5 = test system: RASSF5; parameters: method as in earlier work; settings: cited from earlier work
[1] = CAM-assay, cited from earlier work
Ki67 = assay: Immunohistochemistry of tumor biopsies, Ki67 (tumor cell proliferation); format: in vivo, human; settings: 10 paired tumor biopsies, day 17
Experimental: Immunohistochemistry: Immunohistochemical staining was performed on 3–5 μm thick sections of the (freeze) tumor biopsies for CD3, CD31 and Ki67 according to standard methods (see Supplementary Data S2). Morphological characteristics were assessed in hematoxylin-eosin (H&E)-stained tissue sections. Evaluation of staining was performed by four investigators using light microscopy of serial tissue sections. […] Semi-quantification of CD31 staining was scored manually by a pathologist. The number of cells positive for CD3, CD31 was expressed as an estimated proportion of the total number of cells. […]
Finally, staining was
visualized with 3,3-diamino-benzidine-tetra hydrochloride (DAB), 0.3 mg/ml in 1 ml PBS
with 0.3 % H2O2. All slides were counterstained with hematoxylin.

[2] = Plasma pharmacokinetics of high-dose intermittent sunitinib (LC-MS-MS, NONMEM); format: in vivo, human; settings: human, plasma, oral, Cmax plasma - Sunitinib concentration, individual patient
Experimental: Study pharmacokinetic assessment in plasma: Ethylenediaminetetraacetic acid (EDTA) blood was collected pretreatment and subsequently at multiple time points in all patients (0, 2, 4, 6, 8, 10, and 24 h post-dose on day 1 for both time schedules and thereafter at days 3, 8, 10, 15, 17, and 22 for the once weekly schedule and at days 3, 15, 17, and 29 for the once every 2 weeks schedule). All samples were centrifuged within 1 h after collection at 2000 g for 10 min (at 4 degrees Celsius (°C)), plasma was separated and stored at −80 °C until the day of analysis.
Since there is no evidence for the exact relationship between plasma and tumor concentrations, we chose to use the concentration–time data calculated by NONMEM for Cmax, the average concentration over time (Caverage) and the trough concentrations just before the next dose was administered (Ctrough) based on rich PK-data of each individual patient. […] Inter-occasion variability in bioavailability and absorption duration were allowed in the model. The control stream of the final model and the goodness-of-fit plots are supplied in the Supplementary Material (Supplementary Data S3). The developed model was used to derive the individual predictions for the Cmax, Caverage, and Ctrough. SUM concentrations were calculated.
(§1) Supplementary data S2 – Methods (Details)
(§2) samples; using a validated liquid chromatography–tandem mass spectrometry (LC-MS-MS).
(§3) The system consisted of an Acquity H‐Class UPLC system, coupled to a Xevo TQ‐S micro
(§4) tandem mass spectrometer. […]

Q6ZSR9 = test system: Q6ZSR9; parameters: method as in earlier work; settings: cited from earlier work
[3] = in vivo; cited from earlier work
Food effect cohort = format: in vivo, human; settings: 700 mg Q2W, fed versus fasted
refractory solid tumors [4] = test system: refractory solid tumors; parameters: method as in PMID 30586316; settings: cited from earlier work
RASSF3 = test system: RASSF3; parameters: method as in earlier work; settings: cited from earlier work
[5] = cited from earlier work
MAP4K4 = test system: MAP4K4; parameters: method as in earlier work; settings: cited from earlier work
PHKG2 = test system: PHKG2; parameters: method as in earlier work; settings: cited from earlier work
[6] = Skin drug concentration in skin biopsy at day 17 (LC-MS-MS); format: in vivo, human; settings: individual patient; for concentration at 17 day: human, skin, oral, Skin - Sunitinib concentration
Experimental: All tissue samples were immediately snap frozen (within 1 min) in liquid nitrogen and cryopreserved at −80 °C until the day of analysis.
Tissue biopsies were weighed accurately before analysis. Tissue homogenate was prepared by using a mechanical homogenizer. The tumor tissue was homogenized with the precellys lysing kit (bertin instruments®) in the Roche MagNA lyzer®. […] Tissue homogenate samples were directly analyzed.
as §1, §2, §3, §4

TEX264 = test system: TEX264; parameters: method as in earlier work; settings: cited from earlier work
TNIK = test system: TNIK; parameters: method as in earlier work; settings: cited from earlier work
FGFR-1 = test system: FGFR-1; parameters: method as in earlier work; settings: cited from earlier work
refractory solid tumors [7] = assay: Phase I trial outcome (PFS, OS); format: in vivo, human; settings: individual patient
Experimental: All patients provided written informed consent before entering the study. The study was conducted in accordance with the Declaration of Helsinki and with the principles of the International Conference on Harmonization Guidelines for Good Clinical Practice. The study protocol was approved by the local institutional board and an independent Ethics Committee.
Patients continued treatment until progression, intolerance, or withdrawal of consent. The primary outcomes of the phase I clinical trial were described previously.
Efficacy was assessed in patients who completed at least two weeks of treatment. […] Statistical significance was set at p < 0.05. All statistical analyses were performed in SPSS, version 25.

[8] = standard daily schedule, three patients

CCN(CC)CCNC(=O)c1c(C)[nH]c(/C=C2\C(=O)Nc3ccc(F)cc32)c1C [sunitinib]
IC50 (LATS1): […] | IC50 (CLK1): […] | IC50 (RASSF5): 1130 nM | sunitinib tumor concentration, range ([1]; high-dose Q1W schedule): […] | sunitinib tumor concentration, range ([1]; standard daily schedule): […] | tumor cell proliferation (TCP), pre- versus on treatment biopsies (Ki67): […] | Cmax ([2]; 200 mg, 200 mg O1W): 239 ng/mL | Cmax ([2]; 600 mg, 600 mg O2W): 190 ng/mL | IC50 (Q6ZSR9): […] | apparent volume of distribution [3]: 2230 L | effect of food on oral uptake (Food effect cohort): did not affect | OS range (refractory solid tumors [4]; 300 mg Q1W): 1.2–15 months | PFS range (refractory solid tumors [4]; 300 mg Q1W): 0.7–11 months | median OS (refractory solid tumors [4]; 300 mg Q1W): 3.1 months | median PFS (refractory solid tumors [4]; 300 mg Q1W): 2.2 months | OS range (refractory solid tumors [4]; 700 mg Q2W): 1.3−19.6 months | PFS range (refractory solid tumors [4]; 700 mg Q2W): 0.5–11 months | median OS (refractory solid tumors [4]; 700 mg Q2W): 4.9 months | median PFS (refractory solid tumors [4]; 700 mg Q2W): 2.6 months | OS range (refractory solid tumors [4]; all patients): 0.8–27 months | PFS range (refractory solid tumors [4]; all patients): 0.5–11 months | median overall survival (OS) (refractory solid tumors [4]; all patients): 4.9 months | median progression free survival (PFS) (refractory solid tumors [4]; all patients): 2.5 months | IC50 (RASSF3): 800 nM | median plasma concentration ([5]; patients): […] | median sunitinib tumor concentration ([5]; patients): […] | tumor sunitinib concentration [5, 8]: […] | tumor sunitinib concentration compared to plasma concentration [5, 8]: […] | IC50 (MAP4K4): […] | IC50 (PHKG2): […] | Skin - Sunitinib concentration ([6]; 300 mg O1W): 7444 µg/L and 1839 µg/L and 611 µg/L and 3502 µg/L and 629 µg/L and 305 µg/L and 1571 µg/L and 1582 µg/L and 2451 µg/L and 1993 µg/L and 5819 µg/L and 4222 µg/L and 1881 µg/L | Skin - Sunitinib concentration ([6]; 300 mg O2W): 197 µg/L and 399 µg/L | Skin - Sunitinib concentration ([6]; 700 mg O2W): 6449 µg/L and 157 µg/L and 494 µg/L and 2120 µg/L and 13415 µg/L and 375 µg/L and 1238 µg/L and 1247 µg/L and 792 µg/L and 614 µg/L and 455 µg/L and 393 µg/L and 276 µg/L and 13960 µg/L and 3537 µg/L and 896 µg/L and 2370 µg/L and 4779 µg/L and 1278 µg/L | concentration at 17 day ([6]; 400 mg, 400 mg O1W): 1500 ng/mL | concentration at 17 day ([6]; 800 mg, 800 mg O2W): 520 ng/mL | IC50 (TEX264): 990 nM | IC50 (TNIK): […] | IC50 (FGFR-1): […] | OS (refractory solid tumors [7]; 200 mg O1W): 119 days and 134 days | PFS (refractory solid tumors [7]; 200 mg O1W): 77 days and 82 days | OS (refractory solid tumors [7]; 300 mg O1W): […] | PFS (refractory solid tumors [7]; 300 mg O1W): […] | OS (refractory solid tumors [7]; 300 mg O2W): 78 days and 76 days | PFS (refractory solid tumors [7]; 300 mg O2W): 58 days and 61 days | OS (refractory solid tumors [7]; 400 mg O1W): 26 days and 261 days and 817 days and 151 days and 132 days and 237 days and 169 days | PFS (refractory solid tumors [7]; 400 mg O1W): 23 days and 239 days and 68 days and 51 days and 160 days | OS (refractory solid tumors [7]; 400 mg O2W): 185 days and 23 days and 194 days | PFS (refractory solid tumors [7]; 400 mg O2W): 57 days | OS (refractory solid tumors [7]; 500 mg O2W): 257 days and 427 days | PFS (refractory solid tumors [7]; 500 mg O2W): 57 days and 176 days and 54 days | OS (refractory solid tumors [7]; 600 mg O2W): 353 days and 342 days | PFS (refractory solid tumors [7]; 600 mg O2W): 56 days and 331 days and 93 days | OS (refractory solid tumors [7]; 700 mg O2W): 86 days and 150 days and 428 days and 170 days and 91 days and 57 days and 142 days and 40 days and 526 days and 232 days and 125 days and 486 days and 400 days and 169 days and 74 days and 419 days and 148 days and 184 days and 333 days and 596 days and 93 days | PFS (refractory solid tumors [7]; 700 mg O2W): 56 days and 77 days and 245 days and 170 days and 14 days and 57 days and 26 days and 168 days and 64 days and 60 days and 45 days and 334 days and 197 days and 318 days and 84 days | OS (refractory solid tumors [7]; 800 mg O2W): 89 days and 32 days and 45 days and 243 days and 63 days and 62 days | PFS (refractory solid tumors [7]; 800 mg O2W): 56 days and 194 days and 42 days
